This is an account of results in patent publication US10584128B2, “Bicyclic dihydropyrimidine-carboxamide derivatives as Rho-Kinase inhibitors” (CHIESI FARMACEUTICI S.p.A., priority 2016, dated 2020).

The target in one assay is Rho kinase 1 (Homo sapiens, UniProt Q13464). Kind of assay: In vitro Rho kinase inhibitory activity assay (ADP-Glo kit, Myelin Basic Protein substrate). It is filed as biochemical. Conditions: 10 μM ATP, 25° C., read-out: ROCK1 inhibitory activity (Ki, range of activity). The gist of the method:
(§1)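 Kinase activity is measured as ADP production (ADP-Glo, luminescence) after 1 hour at 25 °C with 10 μM ATP and 2.5 μM Myelin Basic Protein, following 30 min enzyme–compound preincubation. Buffer is 40 mM Tris pH7.5, 20 mM MgCl2, 0.1 mg/ml BSA, 50 μM DTT.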

A further assay deals with Rho kinase 2 (Homo sapiens, UniProt O75116). Described as above. It is filed as biochemical. Conditions: 10 μM ATP, 25° C., read-out: ROCK2 inhibitory activity (Ki, range of activity). The gist of the method: as §1
Rho kinase 2, sequence (O75116 whole entry): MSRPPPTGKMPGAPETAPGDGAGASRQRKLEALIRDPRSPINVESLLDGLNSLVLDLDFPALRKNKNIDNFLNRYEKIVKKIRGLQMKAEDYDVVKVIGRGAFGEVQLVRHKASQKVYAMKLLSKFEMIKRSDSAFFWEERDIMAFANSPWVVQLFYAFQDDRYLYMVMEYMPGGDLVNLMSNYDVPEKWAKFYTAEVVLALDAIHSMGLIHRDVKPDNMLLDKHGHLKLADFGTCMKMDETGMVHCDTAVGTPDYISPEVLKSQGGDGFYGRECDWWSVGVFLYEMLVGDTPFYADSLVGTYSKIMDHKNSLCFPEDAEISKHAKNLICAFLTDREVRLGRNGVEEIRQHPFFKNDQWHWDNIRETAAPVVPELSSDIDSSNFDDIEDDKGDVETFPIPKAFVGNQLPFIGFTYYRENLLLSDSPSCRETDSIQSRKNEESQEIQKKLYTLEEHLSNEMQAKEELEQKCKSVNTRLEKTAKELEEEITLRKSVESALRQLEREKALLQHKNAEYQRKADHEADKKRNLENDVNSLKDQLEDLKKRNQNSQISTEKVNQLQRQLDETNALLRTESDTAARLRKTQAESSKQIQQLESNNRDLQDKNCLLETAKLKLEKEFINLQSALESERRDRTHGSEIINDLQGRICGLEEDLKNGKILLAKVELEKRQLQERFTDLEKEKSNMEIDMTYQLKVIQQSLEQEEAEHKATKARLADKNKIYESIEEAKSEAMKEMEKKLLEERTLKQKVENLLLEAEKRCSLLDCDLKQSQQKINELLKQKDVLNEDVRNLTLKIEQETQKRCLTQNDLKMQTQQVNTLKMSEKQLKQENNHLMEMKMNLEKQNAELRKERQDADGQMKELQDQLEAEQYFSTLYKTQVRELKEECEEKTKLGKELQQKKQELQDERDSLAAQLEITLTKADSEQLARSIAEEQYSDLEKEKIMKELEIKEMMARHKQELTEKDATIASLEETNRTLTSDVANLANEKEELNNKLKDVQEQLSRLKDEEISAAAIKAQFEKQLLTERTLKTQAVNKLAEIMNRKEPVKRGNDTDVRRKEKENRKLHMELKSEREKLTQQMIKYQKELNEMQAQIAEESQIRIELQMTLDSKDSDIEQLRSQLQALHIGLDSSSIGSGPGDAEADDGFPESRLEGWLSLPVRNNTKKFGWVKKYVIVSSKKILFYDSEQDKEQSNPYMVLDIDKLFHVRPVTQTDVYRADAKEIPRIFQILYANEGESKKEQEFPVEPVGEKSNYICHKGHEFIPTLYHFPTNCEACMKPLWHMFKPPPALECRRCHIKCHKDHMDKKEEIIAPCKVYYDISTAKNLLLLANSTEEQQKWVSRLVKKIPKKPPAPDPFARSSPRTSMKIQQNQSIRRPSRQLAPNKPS

Rho kinase 1, sequence (Q13464 whole entry): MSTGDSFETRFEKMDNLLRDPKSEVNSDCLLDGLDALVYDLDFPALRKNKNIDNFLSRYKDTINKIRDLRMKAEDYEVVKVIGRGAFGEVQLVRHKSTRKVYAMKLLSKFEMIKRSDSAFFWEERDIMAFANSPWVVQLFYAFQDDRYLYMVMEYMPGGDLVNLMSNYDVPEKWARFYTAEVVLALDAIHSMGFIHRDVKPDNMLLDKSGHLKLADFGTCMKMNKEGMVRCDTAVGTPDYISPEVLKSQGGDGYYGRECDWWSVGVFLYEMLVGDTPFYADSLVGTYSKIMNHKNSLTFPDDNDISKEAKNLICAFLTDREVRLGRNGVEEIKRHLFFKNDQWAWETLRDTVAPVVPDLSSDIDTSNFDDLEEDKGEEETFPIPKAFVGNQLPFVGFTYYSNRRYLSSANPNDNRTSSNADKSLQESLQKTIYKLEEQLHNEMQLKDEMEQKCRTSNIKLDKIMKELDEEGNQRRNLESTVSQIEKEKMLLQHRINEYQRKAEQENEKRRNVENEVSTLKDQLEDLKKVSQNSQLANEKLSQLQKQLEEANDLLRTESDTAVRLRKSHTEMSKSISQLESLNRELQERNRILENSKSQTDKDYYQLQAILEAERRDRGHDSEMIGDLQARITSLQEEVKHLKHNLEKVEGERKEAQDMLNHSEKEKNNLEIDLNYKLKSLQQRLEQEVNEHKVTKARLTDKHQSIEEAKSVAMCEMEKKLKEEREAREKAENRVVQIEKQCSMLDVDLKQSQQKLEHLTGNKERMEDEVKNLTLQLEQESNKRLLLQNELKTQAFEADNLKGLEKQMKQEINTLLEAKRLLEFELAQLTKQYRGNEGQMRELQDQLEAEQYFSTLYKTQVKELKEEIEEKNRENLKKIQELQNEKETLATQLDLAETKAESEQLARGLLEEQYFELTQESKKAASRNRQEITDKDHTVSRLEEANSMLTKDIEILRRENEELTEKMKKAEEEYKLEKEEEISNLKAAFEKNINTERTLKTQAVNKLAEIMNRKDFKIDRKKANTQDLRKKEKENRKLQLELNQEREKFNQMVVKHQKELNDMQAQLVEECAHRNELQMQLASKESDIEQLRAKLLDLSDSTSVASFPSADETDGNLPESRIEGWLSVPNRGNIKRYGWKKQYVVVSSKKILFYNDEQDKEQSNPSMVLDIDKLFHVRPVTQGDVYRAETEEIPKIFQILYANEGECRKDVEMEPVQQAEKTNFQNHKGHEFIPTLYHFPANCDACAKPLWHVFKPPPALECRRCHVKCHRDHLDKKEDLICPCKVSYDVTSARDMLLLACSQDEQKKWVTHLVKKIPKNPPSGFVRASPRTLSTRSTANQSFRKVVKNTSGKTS

Take `CSc1cc2n(n1)C(c1ccc(C(F)(F)F)c(F)c1)C(C(=O)Nc1ccc3cnccc3c1)=C(C)N2` (stereo not shown) [Example 117, 7-(3-fluoro-4-(trifluoromethyl)phenyl)-N-(isoquinolin-6-yl)-5-methyl-2-(methylthio)-4,7-dihydropyrazolo[1,5-a]pyrimidine-6-carboxamide]: the inhibition constant Ki on Rho kinase 1 and on Rho kinase 2 was under 0.05 µM each time.

With `O=C(Nc1ccc2cnccc2c1)C1=C(C2CC2)Nc2cc(CO)nn2C1c1ccc(C(F)(F)F)c(F)c1` (stereo not shown) [Example 118, 5-cyclopropyl-7-(3-fluoro-4-(trifluoromethyl)phenyl)-2-(hydroxymethyl)-N-(isoquinolin-6-yl)-4,7-dihydropyrazolo[1,5-a]pyrimidine-6-carboxamide], the Ki at Rho kinase 1 and on Rho kinase 2 was under 0.05 µM each time.

`COCC1=C(C(=O)Nc2ccc3cnccc3c2)C(c2ccc(C(F)(F)F)c(F)c2)n2nc(CO)cc2N1` (stereo not shown) [Example 119, 7-(3-fluoro-4-(trifluoromethyl)phenyl)-2-(hydroxymethyl)-N-(isoquinolin-6-yl)-5-(methoxymethyl)-4,7-dihydropyrazolo[1,5-a]pyrimidine-6-carboxamide]: the Ki on Rho kinase 1 and on Rho kinase 2 was under 0.05 µM each time.

Consider `CC1=C(C(=O)Nc2ccc3cnccc3c2)C(C2CCC(C(F)(F)F)CC2)n2nc(CN(C)C)cc2N1` (stereo not shown) [Example 120, 2-((dimethylamino)methyl)-N-(isoquinolin-6-yl)-5-methyl-7-(4-(trifluoromethyl)cyclohexyl)-4,7-dihydropyrazolo[1,5-a]pyrimidine-6-carboxamide], for which the Ki on Rho kinase 1 and on Rho kinase 2 was under 0.05 µM each time.

Turning to `CC1=C(C(=O)Nc2ccc3cnccc3c2)C(c2ccc(C)c(F)c2F)n2nc(CN(C)C)cc2N1` (stereo not shown) [Example 121, 7-(2,3-difluoro-4-methylphenyl)-2-((dimethylamino)methyl)-N-(isoquinolin-6-yl)-5-methyl-4,7-dihydropyrazolo[1,5-a]pyrimidine-6-carboxamide], the inhibition constant (Ki) on Rho kinase 1 and on Rho kinase 2 was under 0.05 µM in each case.

Take `CC1=C(C(=O)Nc2ccc3cnccc3c2)C(c2ccc(C(F)(F)F)c(F)c2F)n2nc(CN(C)C)cc2N1` (stereo not shown) [Example 122, 7-(2,3-difluoro-4-(trifluoromethyl)phenyl)-2-((dimethylamino)methyl)-N-(isoquinolin-6-yl)-5-methyl-4,7-dihydropyrazolo[1,5-a]pyrimidine-6-carboxamide]: the Ki at Rho kinase 1 and at Rho kinase 2 was under 0.05 µM throughout.

For `CC1=C(C(=O)Nc2ccc3cnccc3n2)C(c2ccc(C(F)(F)F)c(F)c2)n2nc(CN(C)C)cc2N1` (stereo not shown) [Example 123, 2-((dimethylamino)methyl)-7-(3-fluoro-4-(trifluoromethyl)phenyl)-5-methyl-N-(1,6-naphthyridin-2-yl)-4,7-dihydropyrazolo[1,5-a]pyrimidine-6-carboxamide], the Ki on Rho kinase 1 and at Rho kinase 2 was under 0.05 µM throughout.

`CC1=C(C(=O)Nc2ccc3cnccc3c2)C(C2Cc3ccccc3C2)n2nc(CN(C)C)cc2N1` (stereo not shown) [Example 124, 7-(2,3-dihydro-1H-inden-2-yl)-2-((dimethylamino)methyl)-N-(isoquinolin-6-yl)-5-methyl-4,7-dihydropyrazolo[1,5-a]pyrimidine-6-carboxamide]: the Ki at Rho kinase 1 and at Rho kinase 2 was under 0.05 µM throughout.

For the molecule `CC1=C(C(=O)Nc2ccc3cnccc3c2)C(c2ccc(C(F)(F)F)c(F)c2)n2nc(C(=O)NC3CC3)cc2N1` (stereo not shown) [Example 125, N2-cyclopropyl-7-(3-fluoro-4-(trifluoromethyl)phenyl)-N6-(isoquinolin-6-yl)-5-methyl-4,7-dihydropyrazolo[1,5-a]pyrimidine-2,6-dicarboxamide], the Ki on Rho kinase 1 and on Rho kinase 2 was under 0.05 µM throughout.

Regarding `CC1=C(C(=O)Nc2ccc3cnccc3c2)C(c2ccc(C(F)(F)F)c(F)c2)n2nc(C(=O)N(C)C)cc2N1` (stereo not shown) [Example 126, 7-(3-fluoro-4-(trifluoromethyl)phenyl)-N6-(isoquinolin-6-yl)-N2,N2,5-trimethyl-4,7-dihydropyrazolo[1,5-a]pyrimidine-2,6-dicarboxamide], the Ki on Rho kinase 1 and at Rho kinase 2 was under 0.05 µM in each case.

On to `CC1=C(C(=O)Nc2ccc3cnccc3c2)C(c2ccc(C(F)(F)F)c(F)c2)n2nc(C(=O)NCCC(=O)N3CCCC3)cc2N1` (stereo not shown) [Example 127, 7-(3-fluoro-4-(trifluoromethyl)phenyl)-N6-(isoquinolin-6-yl)-5-methyl-N2-(3-oxo-3-(pyrrolidin-1-yl)propyl)-4,7-dihydropyrazolo[1,5-a]pyrimidine-2,6-dicarboxamide], for which the inhibition constant Ki at Rho kinase 1 and at Rho kinase 2 was under 0.05 µM in each case.

For the molecule `CC1=C(C(=O)Nc2ccc3cnccc3c2)C(c2ccc(C(F)(F)F)c(F)c2)n2nc(C(=O)NC3CC(F)(F)C3)cc2N1` (stereo not shown) [Example 128, N2-(3,3-difluorocyclobutyl)-7-(3-fluoro-4-(trifluoromethyl)phenyl)-N6-(isoquinolin-6-yl)-5-methyl-4,7-dihydropyrazolo[1,5-a]pyrimidine-2,6-dicarboxamide], the inhibition constant (Ki) on Rho kinase 1 and on Rho kinase 2 was under 0.05 µM in each case.

In the case of `CC1=C(C(=O)Nc2ccc3cnccc3c2)C(c2ccc(C(F)(F)F)c(F)c2)n2nc(C(=O)NCCN3CCCCC3)nc2N1` (stereo not shown) [Example 129, 7-(3-fluoro-4-(trifluoromethyl)phenyl)-N6-(isoquinolin-6-yl)-5-methyl-N2-(2-(piperidin-1-yl)ethyl)-4,7-dihydro-[1,2,4]triazolo[1,5-a]pyrimidine-2,6-dicarboxamide], the Ki at Rho kinase 1 and at Rho kinase 2 was under 0.05 µM in each case.

For the molecule `CC1=C(C(=O)Nc2ccc3cnccc3c2)C(c2ccc(C(F)(F)F)c(F)c2)n2nc(N)cc2N1` (stereo not shown) [Example 130, 2-Amino-7-(3-fluoro-4-(trifluoromethyl)phenyl)-N-(isoquinolin-6-yl)-5-methyl-4,7-dihydropyrazolo[1,5-a]pyrimidine-6-carboxamide], the inhibition constant Ki on Rho kinase 1 and at Rho kinase 2 was under 0.05 µM throughout.

Consider `CC1=C(C(=O)Nc2ccc3cnccc3c2)C(c2ccc(C(F)(F)F)c(F)c2)n2nc(NC(=O)CCN3CCCCC3)cc2N1` (stereo not shown) [Example 131, 7-(3-Fluoro-4-(trifluoromethyl)phenyl)-N-(isoquinolin-6-yl)-5-methyl-2-(3-(piperidin-1-yl)propanamido)-4,7-dihydropyrazolo[1,5-a]pyrimidine-6-carboxamide], for which the inhibition constant (Ki) on Rho kinase 1 and on Rho kinase 2 was under 0.05 µM throughout.

Turning to `CC1=C(C(=O)Nc2ccc3cnccc3c2)C(c2ccc(C(F)(F)F)c(F)c2)n2nc(NC(=O)CN3CCCC3)cc2N1` (stereo not shown) [Example 132, 7-(3-fluoro-4-(trifluoromethyl)phenyl)-N-(isoquinolin-6-yl)-5-methyl-2-(2-(pyrrolidin-1-yl)acetamido)-4,7-dihydropyrazolo[1,5-a]pyrimidine-6-carboxamide], the inhibitory constant (Ki) at Rho kinase 1 and at Rho kinase 2 was under 0.05 µM each time.

For the molecule `CC1=C(C(=O)Nc2ccc3cnccc3c2)C(c2ccc(C(F)(F)F)c(F)c2)n2nc(NC(=O)COC3CCN(C)CC3)cc2N1` (stereo not shown) [Example 133, 7-(3-fluoro-4-(trifluoromethyl)phenyl)-N-(isoquinolin-6-yl)-5-methyl-2-(2-((1-methylpiperidin-4-yl)oxy)acetamido)-4,7-dihydropyrazolo[1,5-a]pyrimidine-6-carboxamide], the inhibition constant (Ki) on Rho kinase 1 and on Rho kinase 2 was under 0.05 µM each time.

With `CC1=C(C(=O)Nc2ccc3cnccc3c2)C(c2ccc(C)c(F)c2)n2nc(NC(=O)CN3CCCC3)cc2N1` (stereo not shown) [Example 134, 7-(3-fluoro-4-methylphenyl)-N-(isoquinolin-6-yl)-5-methyl-2-(2-(pyrrolidin-1-yl)acetamido)-4,7-dihydropyrazolo[1,5-a]pyrimidine-6-carboxamide], the inhibition constant (Ki) at Rho kinase 1 and on Rho kinase 2 was under 0.05 µM in each case.

For `CC1=C(C(=O)Nc2ccc3cnccc3c2)C(c2ccc(C(F)(F)F)c(F)c2)n2nc(C3CCN(C(=O)CCN4CCCCC4)CC3)cc2N1` (stereo not shown) [Example 135, 7-(3-fluoro-4-(trifluoromethyl)phenyl)-N-(isoquinolin-6-yl)-5-methyl-2-(1-(3-(piperidin-1-yl)propanoyl)piperidin-4-yl)-4,7-dihydropyrazolo[1,5-a]pyrimidine-6-carboxamide], the inhibition constant Ki at Rho kinase 1 and at Rho kinase 2 was under 0.05 µM each time.

As for `CC1=C(C(=O)Nc2ccc3cnccc3c2)C(c2ccc(C(F)(F)F)c(F)c2)n2nc(N3CCN(C)CC3)cc2N1` (stereo not shown) [Example 136, 7-(3-Fluoro-4-(trifluoromethyl)phenyl)-N-(isoquinolin-6-yl)-5-methyl-2-(4-methylpiperazin-1-yl)-4,7-dihydropyrazolo[1,5-a]pyrimidine-6-carboxamide], the inhibitory constant (Ki) at Rho kinase 1 and on Rho kinase 2 was under 0.05 µM each time.
